Patent US6417235B2, “Method and use of α-amino-β-mercapto-ethane derivatives as dicarbonyl scavengers for treatment of conditions resulting from protein, lipid, and DNA damage” (University of Kentucky Research Foundation, priority 2000, dated 2002)

Assays:
[1] = Alpha-dicarbonyl trapping followed by HPLC
Procedure: Phenylglyoxal (10 mM) and D-penicillamine (20 mM) were reacted in 50 mM KH2PO4 buffer, pH 7.4 at room temperature. The progress of he reaction was monitored by HPLC analysis of reaction aliquots at 254 nm. After 40 minutes reaction time more than 90% conversion of the phenylglyoxal peak into a single product peak of higher retention time was observed. […] UV detection was at 254 nm. As shown by the HPLC analysis of the reaction system shown in FIG. 7, phenyglyoxal is fully reacted with D-penicillamine within 5 minutes. […] The reaction kinetics were studied at a phenylglyoxal concentration of […] and at 250 and 500 micromolar carbonyl scavenger concentration (D-penicillamine, aminoguanidine). Over the course of the reaction, aliquots were analyzed by HPLC. In the case of D-penicillamine, which required shorter sampling periods, reaction aliquots were taken every 20 seconds, and kept on dry ice until analysis. The initial reaction rates of phenylglyoxal with the test compounds were monitored by following the disappearance of phenylglyoxal over time. […] The measured first order rate constant (kst) was then used to calculate the second order rate constant (by applying the following equation: […]-carbonyl scavenger}. The calculated second order rate constants determined at the two reactant ratios were in good agreement.

HaCat cells = assay: Protection of keratinocytes from alpha-dicarbonyl stress (cell count after 72 hour exposure); assay type: cell-based, human
Procedure: (§1) A continuous cell line of human epidermal keratinocytes (HaCat cells) and human dermal fibroblasts (CF-3 cells) were routinely cultured in 75 cm^2 flasks and split biweekly in DMEM containing 10% fetal bovine serum and kept in a humidified atmosphere containing 5% CO2 at 37° C. Human keratinocytes were split using 5% trypsin and human fibroblasts employed 1% trypsin. All experiments were carried out on 6 well dishes (Falcon USA), where keratinocytes were seeded at 2×10^4 cells/well and fibroblasts at 4×10^4 cells/well. Cells were left overnight to attach to the plate and the appropriate carbonyl scavenger was then added 15 minutes prior to the addition of the alpha-dicarbonyl stress compounds glyoxal or methylglyoxal. Following 72 hour exposure to the stress compound, cells were counted with a Coulter counter. the protective effects of the alpha-dicarbonyl scavengers were assessed by comparing the growth of untreated cells with cells exposed to alpha-carbonyl stress +/− test compound.

CF-3 cells = assay: Protection of fibroblasts from alpha-dicarbonyl stress (cell count after 72 hour exposure); assay type: cell-based, human
Procedure: as §1

HaCat keratinocytes = assay: AGE-photosensitization of human skin cells, growth inhibition under solar simulated light; details: 10 mM
Procedure: Human HaCat keratinocytes growing on 35 mm dishes were exposed to solar simulated light (1.2 kJ/m^2 UVB and 23 kJ/m^2 UVA) in the presence or absence of AGE-BSA as a model of a protein with advanced glycation endproducts. Control populations were treated in exactly the same way as described above, but were not exposed to solar simulated light (SSL).

CC(C)(S)[C@@H](N)C(=O)O [D-Penicillamine]
time until phenylglyoxal is fully reacted ([1]; HPLC analysis, FIG. 7): ≤ 5 min
conversion of the phenylglyoxal peak into a single product peak ([1]; phenylglyoxal 10 mM, D-penicillamine 20 mM, pH 7.4, room temperature, after 40 minutes): more than 90%
protection from alpha-dicarbonyl stress (HaCat cells; FIG. 14): protection
protection from methylglyoxal induced alpha-dicarbonyl stress (HaCat cells; FIG. 15): protection
protection from alpha-dicarbonyl stress (CF-3 cells; FIG. 14): protection
protection from methylglyoxal induced alpha-dicarbonyl stress (CF-3 cells; FIG. 15): protection
toxic effects on HaCat cells (HaCat keratinocytes): no toxic effects
reversal of the photosensitization effect (HaCat keratinocytes; AGE-BSA with SSL): completely reversed the photosensitization effect
